Measured values taken from patent publication US20250320523A1, “PHAGOCYTOSIS ASSAY COMBINING A SYNTHETIC CELL DEATH SWITCH AND A PHAGOCYTOSIS REPORTER SYSTEM” (Hoffmann-La Roche Inc., priority 2022, published 2025).

Assays:
[1] = test system: H4-iCaspase-SEP-mCherry cells in blood-brain barrier spheroids; test: Phagocytosis assay in 3D BBB spheroids (H4-iCaspase-SEP-mCherry and HMC3 microglia); type: cell-based, human; conditions: 100 nM AP20187, day 2, imaged 8 hours
Procedure: H4 cells were transduced with a lentiviral vector containing iCaspase-SEP-mCherry, single-cell sorted for SEP- and mCherry double-positive cells and expanded in 1 μg/ml Puromycin-containing media to select for stably transduced cells. H4-iCaspase-SEP-mCherry and HMC3 microglia were co-seeded with primary human brain endothelial cells, pericytes and astrocytes (Sciencell) to form blood-brain barrier (BBB) spheroids as described by Simonneau, C et al. Investigating receptor-mediated antibody transcytosis using blood-brain barrier organoid arrays. Fluids Barriers CNS. 2021; 18 (1): 43. Briefly, the cells were combined at a 1:1:1:1:1 ratio and seeded into a glass-bottom GRI3D microwell plate (SUN Biosciences). After 2 days of culture in EGM2 medium (Lonza) with astrocyte growth supplement (Sciencell), a timelapse experiment was performed as described above (for FIG. 4): Apoptosis was induced at t0 by adding 100 nM AP20187 to the media, and time-lapse imaging was immediately started on an inverted fluorescence microscope (Leica) using autofocus, 10× objective, 1 image every 10 minutes for 8 hours or more.

[2] = test system: H4-iCaspase-SEP-mCherry cells in neurovascular unit model; test: Phagocytosis assay in 3D neurovascular unit model in microfluidic chip; type: cell-based, human; conditions: 10 nM AP20187, 3D matrix of microfluidic chip, after 7 days culture
Procedure: H4 cells were transduced with a lentiviral vector containing iCaspase-SEP-mCherry, single-cell sorted for SEP- and mCherry double positive cells and expanded in 1 μg/ml Puromycin-containing media to select for stably transduced cells. H4-iCaspase-SEP-mCherry and HMC3 microglia were co-seeded with primary human brain endothelial cells, pericytes and astrocytes (Sciencell) at the ratio 1:1:4:0.5:1 and left to self-assemble to neurovascular units inside a fibrin gel matrix in a microfluidic chip (AIM Biotech). The cells were seeded into the microfluidic chips as described in Campisi, M et al.3D Self-Organized Human Blood-Brain Barrier in a Microfluidic Chip. Methods Mol Biol. 2021; 2258:205-219, and the vascular networks were grown over 7 days in EGM2 medium (Lonza) with astrocyte growth supplement (Sciencell). Apoptosis was induced at t0 by adding 10 nM AP20187 to the media, the chips were then fixed in 4% PFA after 30 minutes or 2 h, counterstained with DAPI and imaged on an inverted fluorescence microscope.

[3] = test system: HEK293 cells transfected with iCaspase9; test: Apoptosis induction in iCaspase9-transfected HEK293 cells, AnnexinV/viability dye flow cytometry; type: cell-based
Procedure: HEK293 cells were transfected with 2 μg of iCaspase9 construct by nucleofection (Amaxa 4D nucleofector by Lonza, program CM-130) and plated in a 24-well plate. The following day, 100 nM AP20187 was added to the cells, and analyzed 1 h, 2 h or 3 h later. For the control, the cells were incubated with […] Staurosporine for 3 h. For the analysis, the cells were harvested and labeled with AnnexinV-BV421 and viability dye APCeF780 and analyzed by flow cytometry. Apoptotic cells were qualified as AnnexinV-positive and viability dye-negative.

[4] = test system: phagocytosis by iPSC-derived microglia; test: 2D phagocytosis of apoptotic H4-iCaspase-SEP-mCherry cells by iPSC-derived microglia (Incucyte imaging); type: cell-based, human; conditions: 1 uM Cytochalasin D added 30 min before imaging; apoptosis induced with 10 nM AP20187
Procedure: H4 cells were transduced with a lentiviral vector containing iCaspase-SEP-mCherry, single-cell sorted for SEP and mCherry double-positive cells and expanded in 1 μg/ml Puromycin-containing media to select for stably transduced cells. HMC3 or iPSC-derived microglia (Reich, M et al. Alzheimer's Risk Gene TREM2 Determines Functional Properties of New Type of Human iPSC-Derived Microglia. 2021; 11:617860) were seeded in a 96-well imaging plate […]. To visualize microglial morphology during the phagocytosis assay, cells were stained with a far-red viability dye (eBioscience). H4-iCaspase-SEP-mCherry cells were added the next day and left to attach for 3 h. […] Apoptosis was induced at to by adding 10 nM AP20187 to the media, and time-lapse imaging was immediately started on an inverted fluorescence microscope (Leica) or incucyte (Sartorius), 10× objective, 1 image every 10 minutes for 8 hours or more.
The number of phagocytosed cells per area was determined using the incucyte software for automated image quantification, by 1) segmenting individual cells, 2) identifying all H4-iCaspase-SEP-mCherry cells positive for mCherry (red fluorescence) and 3) from those cells, identifying the SEP (green fluorescence) negative cells as phagocytosed cells. […]

[5] = test system: efferocytosis by THP-1 macrophages; test: Efferocytosis of Jurkat-iCaspase-SEP-mCherry cells by THP-1 macrophages, flow cytometry; type: cell-based; conditions: Jurkat cells pre-treated, then 10 nM AP20187, incubated with THP-1 macrophages
Procedure: Jurkat cells were transduced with a lentiviral vector containing iCaspase-SEP-mCherry, FACS sorted for SEP- and mCherry-expression and expanded in 1 ug/ml Puromycin-containing media to select for stably transduced cells. For pre-treatments, the Jurkat cells were incubated with GAS6, an efferocytosis enhancer, or Cytochalasin D, an efferocytosis inhibitor, then exposed to 10 nM AP20187 and incubated with THP-1 macrophages. As a control, Jurkat cells were treated with Staurosporin and labeled with pHrodo (red pH-sensitive fluorophore). Efferocytosis was quantified using flow cytometry, by gating for mCherry-positive and SEP-negative cells (apoptotic cells taken up by THP1), and for pHrodo-high cells in the control samples.

Molecule: CC[C@H](C(=O)N1CCCC[C@H]1C(=O)O[C@H](CCc1ccc(OC)c(OC)c1)c1cccc(OCC(=O)NCC(CNC(=O)COc2cccc([C@@H](CCc3ccc(OC)c(OC)c3)OC(=O)[C@@H]3CCCCN3C(=O)[C@@H](CC)c3cc(OC)c(OC)c(OC)c3)c2)CN(C)C)c1)c1cc(OC)c(OC)c(OC)c1 [AP20187]
- SEP signal of spheroids (loss indicates phagocytosis) [1]: gradually lost SEP signal
- time to efficient induction of apoptosis in transduced cells [2]: ≤ 30 min
- apoptotic cells (AnnexinV-positive and viability dye-negative) ([3]; 100 nM AP20187, after 1 h, iCaspase9 HEK293 cells): 88%

Molecule: C=C1[C@@H](C)[C@H]2[C@H](Cc3ccccc3)NC(=O)[C@]23[C@H](OC(C)=O)/C=C/[C@@](C)(O)C(=O)[C@@H](C)C/C=C/[C@H]3[C@@H]1O [Cytochalasin D]
- onset and total amount of phagocytosed apoptotic cells [4]: reduces both the onset and total amount
- uptake of apoptotic cells by macrophages [5]: lowest uptake

Molecule: CN[C@@H]1C[C@H]2O[C@@](C)([C@@H]1OC)n1c3ccccc3c3c4c(c5c6ccccc6n2c5c31)C(=O)NC4 [Staurosporine]
- apoptotic cells (AnnexinV-positive and viability dye-negative) ([3]; Staurosporine, after 3 h): 36%

B1: GAS6: an efferocytosis enhancer (protein, UniProt Q14393 31-678, looked up)
Growth arrest-specific …: ALLPAREATQFLRPRQRRAFQVFEEAKQGHLERECVEELCSREEAREVFENDPETDYFYPRYLDCINKYGSPYTKNSGFATCVQNLPDQCTPNPCDRKGTQACQDLMGNFFCLCKAGWGGRLCDKDVNECSQENGGCLQICHNKPGSFHCSCHSGFELSSDGRTCQDIDECADSEACGEARCKNLPGSYSCLCDEGFAYSSQEKACRDVDECLQGRCEQVCVNSPGSYTCHCDGRGGLKLSQDMDTCEDILPCVPFSVAKSVKSLYLGRMFSGTPVIRLRFKRLQPTRLVAEFDFRTFDPEGILLFAGGHQDSTWIVLALRAGRLELQLRYNGVGRVTSSGPVINHGMWQTISVEELARNLVIKVNRDAVMKIAVAGDLFQPERGLYHLNLTVGGIPFHEKDLVQPINPRLDGCMRSWNWLNGEDTTIQETVKVNTRMQCFSVTERGSFYPGSGFAFYSLDYMRTPLDVGTESTWEVEVVAHIRPAADTGVLFALWAPDLRAVPLSVALVDYHSTKKLKKQLVVLAVEHTALALMEIKVCDGQEHVVTVSLRDGEATLEVDGTRGQSEVSAAQLQERLAVLERHLRSPVLTFAGGLPDVPVTSAPVTAFYRGCMTLEVNRRLLDLDEAAYKHSDITAHSCPPVEPAAA
- uptake of apoptotic cells by macrophages [5]: highest uptake
